According to paper PMC6161601 (Journal of Enzyme Inhibition and Medicinal Chemistry, 2018):
“And” between values parts separate entries of the source, which are not always exact repeats. Equal values may be shown once. “Also recorded” adds a separate entry of the source. Read-outs that look alike come from different tables or passages of the source.

How the values were obtained:
BuChE [1] = target: T1, BuChE (Homo sapiens, UniProt P06276); test: BuChE inhibition with excess of substrate (BTC); assay type: biochemical; settings: BTC 2.5 mmol/L
T1 construct: Plasma for determination of BuChE activity was obtained by centrifuging the blood; from tissue; host or cells: plasma of healthy human donors
T1 sequence (P06276 29-602): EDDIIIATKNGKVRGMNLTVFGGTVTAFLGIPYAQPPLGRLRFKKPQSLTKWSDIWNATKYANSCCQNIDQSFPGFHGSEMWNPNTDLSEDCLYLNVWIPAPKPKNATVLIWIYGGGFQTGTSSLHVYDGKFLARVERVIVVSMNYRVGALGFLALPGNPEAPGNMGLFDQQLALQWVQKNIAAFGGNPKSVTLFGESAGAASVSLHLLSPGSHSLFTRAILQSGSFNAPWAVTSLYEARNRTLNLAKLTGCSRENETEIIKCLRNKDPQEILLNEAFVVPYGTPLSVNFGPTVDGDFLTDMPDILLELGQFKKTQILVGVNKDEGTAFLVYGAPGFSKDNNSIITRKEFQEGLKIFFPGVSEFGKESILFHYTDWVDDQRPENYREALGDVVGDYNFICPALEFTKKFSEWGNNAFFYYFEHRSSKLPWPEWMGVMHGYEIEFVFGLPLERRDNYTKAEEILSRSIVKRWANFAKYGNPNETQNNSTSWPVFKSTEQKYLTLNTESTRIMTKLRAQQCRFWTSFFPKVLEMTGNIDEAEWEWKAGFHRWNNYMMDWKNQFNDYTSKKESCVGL

Aβ42 peptide = target: T2, Aβ42 peptide (Homo sapiens, UniProt P05067); test: Beta-amyloid (Aβ 1–42) aggregation, SensoLyte ThT kit; assay type: biochemical
T2 construct: Beta-amyloid (Aβ 1–42) aggregation studies were conducted using SensoLyte ThT Aβ42 Aggregation kit; purchased AnaSpec, Inc, Fremont, CA
T2 sequence (P05067 672-713): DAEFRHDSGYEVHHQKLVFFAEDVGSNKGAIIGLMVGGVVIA
Description: Beta-amyloid (Aβ 1–42) aggregation studies were conducted using SensoLyte ThT Aβ42 Aggregation kit (AnaSpec, Inc, Fremont, CA). Aβ42 peptide was dissolved in cold (4 °C) assay buffer and left to hydrate for a few minutes. The solution was spined at 10,000 rpm for 5 min at 4 °C to centrifuge out any precipitated material. […] The final volume of the test samples was 100 µL. Simultaneously, the positive control and negative control containing morin at the final concentration of 100 µmol/L were established. […] The measurements of fluorescence intensity expressed as relative fluorescence units (RFU) were taken for 90 min with 5 min intervals. The fluorescence intensity measured for positive control equals 100% of Aβ aggregation and was used for estimation of inhibition properties of tested biguanides.
Statistical analysis of data obtained in Aβ aggregation assay was conducted with a commercially available package (GraphPad Prism 5, La Jolla, CA). The results were expressed as the mean ± standard deviation (SD) of measurements conducted in triplicates or quadruplicates. One or two-way ANOVA and subsequent post hoc tests were used for intergroup comparisons. The results were considered significant at p values lower than 0.05.

AChE = target: T3, AChE (Homo sapiens, UniProt P22303); assay type: biochemical
T3 construct: 400-fold diluted solution of haemolysed erythrocytes or diluted plasma (200 times) was incubated; from tissue; host or cells: haemolysed erythrocytes of healthy human donors
T3 sequence (P22303 other isoform, or with tags, fused parts or gaps): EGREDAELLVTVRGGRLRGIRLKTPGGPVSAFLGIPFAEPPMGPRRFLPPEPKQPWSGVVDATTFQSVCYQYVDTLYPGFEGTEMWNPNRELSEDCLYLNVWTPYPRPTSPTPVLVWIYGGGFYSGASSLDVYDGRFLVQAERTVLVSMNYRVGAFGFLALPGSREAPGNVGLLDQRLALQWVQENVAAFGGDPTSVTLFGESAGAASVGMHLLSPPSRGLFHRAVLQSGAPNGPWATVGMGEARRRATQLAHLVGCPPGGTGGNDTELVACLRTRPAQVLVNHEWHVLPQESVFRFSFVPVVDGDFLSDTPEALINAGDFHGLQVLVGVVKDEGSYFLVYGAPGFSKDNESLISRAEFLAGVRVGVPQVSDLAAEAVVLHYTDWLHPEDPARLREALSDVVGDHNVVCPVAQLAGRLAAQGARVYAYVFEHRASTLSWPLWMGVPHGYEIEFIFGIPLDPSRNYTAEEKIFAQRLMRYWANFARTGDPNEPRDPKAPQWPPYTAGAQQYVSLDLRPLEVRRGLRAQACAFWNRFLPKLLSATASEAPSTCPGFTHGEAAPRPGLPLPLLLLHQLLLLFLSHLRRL

[2] = target: T4, human erythrocyte acetylcholinesterase (AChE) (Homo sapiens, UniProt P22303); settings: previous study; cited from earlier work
T4 construct: 400-fold diluted solution of haemolysed erythrocytes or diluted plasma (200 times) was incubated; from tissue; host or cells: haemolysed erythrocytes of healthy human donors
T4 sequence (P22303 other isoform, or with tags, fused parts or gaps): as above

BuChE [3] = target: T1, BuChE; settings: BTC 0.75 mmol/L; previously published; cited from earlier work
[4] = target: T4, human erythrocyte acetylcholinesterase (AChE); test: biochemical; settings: for SI AChE: IC50 BChE/IC50 AChE; for IC50: human erythrocyte AChE, mean ± SD of three independent experiments
Description: (§1) Blood samples were obtained from healthy donors from the Voievodal Specialized Hospital in Łódź, Poland (Wojewódzki Specjalistyczny Szpital im. Dr W. Biegańskiego w Łodzi). The blood was collected into vacuum tubes containing sodium citrate. Erythrocytes were separated from plasma by centrifugation (3000 × g, 10 min, 20 °C) with a Micro 22 R centrifuge (Hettich ZENTRIFUGEN, Tuttlingen, Germany) and washed three times with 0.9% saline. Afterwards, red cells were haemolysed by freezing and stored at a temperature of –30 °C; before each experiment, they were restored at 37° C for 15 min and used to determine AChE activity. […] The studies on the biological material were approved by the Bioethics Committee of the Medical University of Lodz (RNN/27/18/KE).
(§2) The activity of both cholinesterases (AChE and BuChE) were conducted using a spectrophotometric method developed by Ellman with previously described modifications[25]^,[30]. […] 400-fold diluted solution of haemolysed erythrocytes or diluted plasma (200 times) was incubated for 15 min (37° C) with DTNB and tested compound at an appropriate concentration, and the reaction was started by addition of substrate (ATC or BTC). The final volume of a sample was 500 µL.
(§3) AChE Selectivity Index (SI) was calculated with the aid of the following formula: SI = IC50 of BChE/IC50 of AChE. In turn BuChE SI was defined as IC50 of AChE/IC50 of BChE. Linear regression (Hanes–Woolf plots) were used to estimate the maximal velocity (Vmax) and the Michaelis constant (Km).

[5] = target: T5, human plasma butyrylcholinesterase (BuChE) (Homo sapiens, UniProt P06276); test: biochemical; settings: for SI BuChE: IC50(AChE)/IC50(BChE); for IC50: human plasma BuChE, mean ± SD of three independent experiments
T5 construct: Plasma for determination of BuChE activity was obtained by centrifuging the blood; from tissue; host or cells: plasma of healthy human donors
T5 sequence (P06276 29-602): as the sequence (P06276 29-602) above
Description: as §1, §2, §3

[6] = target: T4, human erythrocyte acetylcholinesterase (AChE); test: Kinetic parameters and type of AChE inhibition (Hanes–Woolf); assay type: biochemical; settings: for Vmax(i) AChE: mean ± SD; for vmax AChE, individual experiments B1–B3: inhibitor at 1/3 of IC50; for vmax AChE, individual experiments C1–C3: inhibitor at IC50
Description: (§4) The absorbance was recorded at λ = 436 nm using a CECIL 2021 spectrophotometer (CECIL Instruments Limited, Cambridge, UK) with a thermostatic water flow (temperature 37° C).
as §3
(§5) To establish the type of inhibition, additional experiments were conducted with various concentrations of substrates (ATC, BTC), and the kinetic parameters of the enzymatic reactions were obtained using Hanes–Woolf equation, which is a graphical representation of enzyme kinetics in which the ratio of the initial substrate concentration [S] to the reaction velocity v is plotted against [S]. […]

[7] = target: T5, human plasma butyrylcholinesterase (BuChE); test: Kinetic parameters and type of BuChE inhibition (Hanes–Woolf); assay type: biochemical; settings: for Vmax(i) BuChE: mean ± SD; for vmax BuChE, individual experiments B1–B3: inhibitor at 1/3 of IC50; for vmax BuChE, individual experiments C1–C3: inhibitor at IC50
Description: as §4, §3, §5

SMILES	SI AChE [4]	IC50 [4]	SI BuChE [5]	IC50 [5]	I: type of inhibition, AChE [6]	type of AChE inhibition [6]	vmax AChE, mean ± SD ([6]; B: inhibitor at 1/3 of IC50)	Vmax(i) AChE ([6]; B: inhibitor at 1/3 of IC50)	vmax AChE, mean ± SD ([6]; C: inhibitor at IC50)	Vmax(i) AChE ([6]; C: inhibitor at IC50)	vmax AChE, individual experiments B1–B3 [6]	vmax AChE, individual experiments C1–C3 [6]	I: type of inhibition, BuChE [7]	type of BuChE inhibition [7]	vmax BuChE, mean ± SD ([7]; B: inhibitor at 1/3 of IC50)	Vmax(i) BuChE ([7]; B: inhibitor at 1/3 of IC50)	vmax BuChE, mean ± SD ([7]; C: inhibitor at IC50)	Vmax(i) BuChE ([7]; C: inhibitor at IC50)	vmax BuChE, individual experiments B1–B3 [7]	vmax BuChE, individual experiments C1–C3 [7]	other results
CN(C)C(=N)N=C(N)N [Metformin, metformin, reference compound]	–	–	–	–	–	–	–	–	–	–	–	–	–	–	–	–	–	–	–	–	effect on BuChE activity (words) (BuChE [1]): did not reveal anti-BuChE activity; effect on BuChE activity (words) (BuChE [1]; listed as metformin): not to affect the enzyme activity; inhibition at 3000 µM (BuChE [1]; metformin at 3 mmol/L): 1.1 ± 0.51%; inhibition at 600 µM (Aβ42 peptide; 600 µmol/L, read-out: maximal inhibition of Aβ aggregation): 11.3%; effect on Aβ fibrillation vs positive control (Aβ42 peptide; both tested concentrations, 5–90 min): did not significantly affect; also recorded: not to significantly affect; type of AChE inhibition (AChE; at 1/2 IC50 for AChE): mixed-type; Vmax AChE (AChE; each at 1/2 IC50 for AChE: metformin 1175, donepezil 0.0125, compound 5 106.0 µmol/L, alone or in mixture): 0.179 ± 0.020 A/min; type of AChE inhibition [2]: mixed inhibition; BuChE inhibition (BuChE [3]): up to 21.2%
CN(C)C(=N)N=C(N)NS(=O)(=O)c1ccc([N+](=O)[O-])cc1 [Compound 3]	0.15	3820 ± 278 µM	6.82	561 ± 192 µM	M (M: mixed type)	mixed inhibition; also recorded: mixed way	147.43 ± 22.32 mA/min	0.147 ± 0.022 A/min	112.29 ± 24.418 mA/min	0.112 ± 0.024 A/min	173.106 mA/min and 136.619 mA/min and 132.580 mA/min	136.281 mA/min and 87.466 mA/min and 113.130 mA/min	M (M: mixed type)	mixed manner	207.61 ± 5.30 mA/min	0.208 ± 0.005 A/min	180.05 ± 19.37 mA/min	0.180 ± 0.019 A/min	207.848 mA/min and 202.204 mA/min and 212.802 mA/min	166.268 mA/min and 171.680 mA/min and 202.204 mA/min	–
CCCCC(CC)CSNC(N)=NC(=N)N(C)C (stereo not shown) [Compound 2]	0.09	3680 ± 693 µM	–	335 ± 107 µM	M (M: mixed type)	mixed type	218.43 ± 5.69 mA/min	0.218 ± 0.005 A/min	160.75 ± 10.82 mA/min	0.160 ± 0.011 A/min	225.000 mA/min and 215.564 mA/min and 214.749 mA/min	153.011 mA/min and 156.143 mA/min and 173.124 mA/min	M (M: mixed type)	mixed manner; also recorded: mixed-type	182.27 ± 9.29 mA/min	0.182 ± 0.009 A/min	103.11 ± 19.12 mA/min	0.103 ± 0.019 A/min	192.871 mA/min and 178.466 mA/min and 175.485 mA/min	115.727 mA/min and 81.110 mA/min and 112.514 mA/min	–
CN(C)C(=N)N=C(N)NS(=O)(=O)c1ccccc1[N+](=O)[O-] [Compound 4]	0.30	2860 ± 283 µM	3.28	871 ± 227 µM	M (M: mixed type)	mixed inhibition	162.74 ± 5.00 mA/min	0.163 ± 0.005 A/min	118.77 ± 19.443 mA/min	0.119 ± 0.019 A/min	161.000 mA/min and 168.393 mA/min and 158.846 mA/min	110.000 mA/min and 141.058 mA/min and 105.263 mA/min	–	non-competitively	229.87 ± 19.38 mA/min	0.229 ± 0.019 A/min	174.32 ± 5.91 mA/min	0.174 ± 0.006 A/min	229.000 mA/min and 249.675 mA/min and 210.944 mA/min	174.000 mA/min and 180.395 mA/min and 168.586 mA/min	–
CCCCCCSNC(N)=NC(=N)N(C)C [Compound 1]	0.59	3170 ± 411 µM	–	1880 ± 558 µM	–	non-competitive inhibition; also recorded: noncompetitively	202.18 ± 7.39 mA/min	0.202 ± 0.007 A/min	161.59 ± 24.42 mA/min	0.161 ± 0.024 A/min	200.260 mA/min and 210.362 mA/min and 195.955 mA/min	141.006 mA/min and 155.200 mA/min and 188.583 mA/min	M (M: mixed type)	mixed-type inhibition; also recorded: mixed manner	206.94 ± 15.02 mA/min	0.207 ± 0.015 A/min	174.27 ± 11.70 mA/min	0.174 ± 0.012 A/min	195.000 mA/min and 223.809 mA/min and 202.024 mA/min	161.000 mA/min and 178.705 mA/min and 183.120 mA/min	–
